The values that follow come from patent US20090030086A1, “ANTIMICROBIAL AGENTS” (priority 2005, published 2009).

Experiment [1] has as its system S. aureus ATCC 29213. Put plainly: MBC assay. Format: cell-based, Staphylococcus aureus. A digest of the protocol: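 Organism grown aerobically on Mueller-Hinton agar/broth (pH 7.2) for 24 hours at 37° C. After the MIC step, samples plated on non-selective agar under those conditions; lowest concentration with no visible growth taken as the MBC.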
For experiment [2], the system named is S. aureus ATCC 29213. Put plainly: Disc diffusion assay (DDA). In kind it is cell-based, Staphylococcus aureus. The conditions noted are these: Staphylococcus aureus, ATCC29213; S. aureus ATCC 29213; unsupplemented agar; 200 μg per disc (thymoquinone 50 μg, 2,6-dimethoxy-p-benzoquinone 100 μg); read-out: DDA (diameter of zone of inhibition). A digest of the protocol:
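Paper discs loaded with test compound (usually 200 μg/disc), solvent evaporated ≥30 min, placed on inoculated Mueller-Hinton agar pH 7.2. Incubated aerobically at 37 °C for 24 h; inhibition zone diameter measured and area calculated as π(D/2)^2.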

Experiment [3] relates to P. acnes NCTC 737. Kind of experiment: Disc diffusion assay (DDA). The conditions noted are these: Cutibacterium acnes, NCTC737; P. acnes NCTC 737; unsupplemented agar; 200 μg per disc (2,6-dimethoxy-p-benzoquinone 100 μg); read-out: DDA (diameter of zone of inhibition). Format: cell-based, Propionibacterium acnes.
Experiment [4] relates to P. granulosum PPR-006. Kind of experiment: Disc diffusion assay (DDA). Format: cell-based. The conditions noted are these: resistance MLS, 200 μg per disc. The procedure:
(§1) The Propionibacterium spp organisms were cultured and maintained on Wilkins-Chalgren Anaerobe Medium (agar and broth) at pH 6.0; cultures were incubated anaerobically at 37° C. for 72 hours.
(§2) A sterile paper disc was impregnated with a sample of the test compound and a minimum of 30 minutes allowed for the solvents to evaporate as far as possible. The disc was then placed on an agar plate onto which the test micro-organism had been inoculated. The plate was then incubated under the conditions described above, following which it was examined visually for signs of bacterial growth. If the test compound had antimicrobial activity, a circular zone of no growth would be obtained around the disc. The diameter of this zone of “inhibition” was measured using a ProtoCOL™ automated zone sizer (Synbiosis, Cambridge, UK). In general, a greater diameter and/or area of the zone of inhibition indicates a greater antimicrobial activity in the relevant test compound, although other factors such as test compound mobility through the agar gel may also influence the result.
(§3) The area of the zone of inhibition was calculated from the measured zone diameter (D) using the formula π(D/2)^2.
(§4) For the DDA assays, 200 μg of TBHQ was loaded onto each disc. The solvent used for the TBHQ was ethanol.
For orientation: In agar diffusion tests the substance spreads into inoculated agar from a disc or well.

Experiment [5] concerns P. granulosum PRP-005. Kind of experiment: Disc diffusion assay (DDA). In kind it is cell-based. The conditions noted are these: resistance MLSK, 200 μg per disc. The procedure:
as §1, §2, §3, §4

The test system of experiment [6] is P. granulosum PRP-043. Kind of experiment: Disc diffusion assay (DDA). The conditions noted are these: resistance MLS, 200 μg per disc. Format: cell-based. On the procedure: as §1, §2, §3, §4
Experiment [7] deals with P. granulosum PRP-044. Kind of experiment: Disc diffusion assay (DDA). In kind it is cell-based. The conditions noted are these: resistance MLS, 200 μg per disc. The procedure: as §1, §2, §3, §4
Experiment [8] relates to P. granulosum PRP-055. Put plainly: Disc diffusion assay (DDA). Format: cell-based. The conditions noted are these: resistance None, 200 μg per disc. The procedure: as §1, §2, §3, §4
In experiment [9] the test system is P. acnes PRP-010. Put plainly: Disc diffusion assay (DDA). In kind it is cell-based, Propionibacterium acnes. The conditions noted are these: resistance MLSK, 200 μg per disc. On the procedure:
Other propionibacterial strains were also tested, as described in Example 4 below. These included certain antibiotic resistant propionibacteria, such as the two P. acnes strains designated PRP-010 and PRP-039 which are resistant respectively to macrolides-lincosamides-streptogramins-ketolides (MLSK) and to macrolides-lincosamides-streptogramins (MLS) and tetracycline—in other words, PRP-010 is resistant to erythromycin and clindamycin, and PRP-039 to erythromycin, clindamycin and tetracycline.
as §1
A sterile paper disc was impregnated with a sample of the test compound and a minimum of 30 minutes allowed for the solvents to evaporate as far as possible. The disc was then placed on an agar plate onto which the test micro-organism had been inoculated. The plate was then incubated under the conditions described above, following which it was examined visually for signs of bacterial growth. […] The diameter of this zone of “inhibition” was measured using a ProtoCOL™ automated zone sizer (Synbiosis, Cambridge, UK). […]
The area of the zone of inhibition was calculated from the measured zone diameter (D) using the formula π(D/2)^2. […]

Experiment [10] relates to H. influenzae ATCC 49247. Put plainly: MBC assay. In kind it is cell-based, Haemophilus influenzae. The procedure:
The H. influenzae strain was cultured and maintained on Haemophilus Test Medium (HTM) agar/broth (the composition of which is as described in NCCLS M7-A6 Vol. 23 No. 2); cultures were incubated in a CO2 atmosphere at 37° C. for 24 hours.
(§5) This assay, normally carried out after an MIC assay, determines the minimum concentration of a compound that is lethal to the micro-organism being tested.
(§6) These samples were then individually sub-cultured on non-selective agar medium, under the incubation conditions described above. Following incubation they were examined visually for bacterial growth.
(§7) The activity of TBHQ against three other bacterial strains was investigated using MIC, MBC and DDA assays as described above. For the DDA assays, 200 μg of TBHQ was loaded onto each disc, using ethanol as the solvent.

The test system of experiment [11] is E. faecalis ATCC 29212. Put plainly: MBC assay. Format: cell-based, Enterococcus faecalis. The procedure:
The staphylococci and enterococci were cultured and maintained on Mueller-Hinton Medium (agar and broth) at pH 7.2; they were incubated aerobically at 37° C. for 24 hours.
as §5, §6, §7

In experiment [12] the test system is S. pyogenes ATCC 12344. Kind of experiment: MIC assay. The conditions noted are these: Streptococcus pyogenes, ATCC12344. Format: cell-based. The source says:
3. Streptococcus pyogenes ATCC 12344—this is a Gram-positive […] bacterium; it is a member of the group A β-haemolytic streptococci which are occasional upper respiratory tract commensals in humans (10% of children, commensal carriage uncommon in adults, its main occurrence is as the agent of tonsillitis). It is clinically significant in the context of skin infections, being a causative agent of cellulitis, necrotising fasciitis, impetigo, erysipelas, wound infections and scarlet fever. Penicillin and erythromycin are the standard treatments for infections involving S. pyogenes. […] S. pyogenes is also a major cause of upper respiratory tract infections. […]
This is a standard international method for quantitatively assessing the antimicrobial activity of a compound in a liquid medium. […]
The wells were inoculated with a liquid suspension of freshly grown micro-organism and incubated under the conditions described above. […] The MIC value was recorded as the lowest concentration of test compound required to inhibit microbial growth, i.e., the lowest concentration for which the liquid in the well remained clear. […]

In brackets after ≈: the same amount, converted by molar mass.

Regarding `CC(C)(C)c1cc(O)ccc1O` [TBHQ, 2-t-butyl hydroquinone], the MIC/MBC ratio in experiment [1] was 1; in [10] it was 1; in [11], 0.5. Besides, the zone of inhibition at 200 µg/disc was 41.8 mm in [2] and 9.95 mm in experiment [3]. Besides, the DDA in [4] came to 20.00 mm; in experiment [5], 0.00 mm; in [6], 10.56 mm; in experiment [7], 10.70 mm; in experiment [8], 13.07 mm; in experiment [9] it was 18.71 mm. In experiment [10] (Haemophilus influenzae, ATCC49247), this compound had an MBC of 15.6 µg/mL (≈ 93.9 µM). Further, the minimum inhibitory concentration (MIC) in [12] is 62.5 to 125 µg/mL (≈ 376 to 752 µM).

What is called zone of inhibition is the extent of the growth-free halo in a diffusion test. The term MIC denotes the lowest concentration that inhibits growth of the organism. High values mean weaker potency, low ones greater potency.
